The compounds below were run on Matrix protein 2 (Influenza A virus (A/Udorn/307/1972(H3N2))), P0DOF8 [S31N] (assay: Inhibition of Influenza A virus AM2 S31N mutant expressed in xenopus laevis frog oocytes assessed as inhibition of channel current at 100 uM after 2 mins by two-electrode voltage clamp assay relative to control).
Assay type: cell-based

Structure (SMILES) | inhibition [%]
OC12CC3CC(C1)CC(NCc1cc(Br)cs1)(C3)C2 | 56.6
OC12CC3CC(C1)CC(NCc1ccc(Br)s1)(C3)C2 | 64.7
Brc1ccc(CNC23CC4CC(CC(C4)C2)C3)[se]1 | 70.6
OC12CC3CC(C1)CC(NCc1ccc(-c4ccccc4Cl)s1)(C3)C2 | 78.7
Ic1ccc(CNC23CC4CC(CC(C4)C2)C3)s1 | 78.5
c1csc(-c2ccc(CNC34CC5CC(CC(C5)C3)C4)s2)c1 | 86.1
OC12CC3CC(C1)CC(NCc1ccc(-c4ccccc4)s1)(C3)C2 | 84.6
COc1ccc(-c2ccc(CNC34CC5CC(CC(O)(C5)C3)C4)s2)cn1 | 68.3
COc1ncc(-c2ccc(CNC34CC5CC(CC(O)(C5)C3)C4)s2)cn1 | 4.4
OC12CC3CC(C1)CC(NCc1cnc(Br)s1)(C3)C2 | 33.5
COC(=O)c1ccc(-c2ccc(CNC34CC5CC(CC(O)(C5)C3)C4)s2)cc1 | 64.3
OC12CC3CC(C1)CC(NCc1ccc(I)s1)(C3)C2 | 75.6
Brc1ccc(CNC23CCC4CC(CC(C4)C2)C3)s1 | 72.6
CSc1ccccc1-c1ccc(CNC23CC4CC(CC(O)(C4)C2)C3)s1 | 73.4
OC12CC3CC(C1)CC(NCc1ccc(-c4ccc(F)cc4F)s1)(C3)C2 | 74.5
OC12CC3CC(C1)CC(NCc1csc(Br)c1)(C3)C2 | 48.3
COc1ccc(-c2ccc(CNC34CC5CC(CC(O)(C5)C3)C4)s2)cc1OC | 37.6
OC12CC3CC(C1)CC(NCc1nc(Br)cs1)(C3)C2 | 36
